This note sets out measurements from US20240238228A1, “COMPOSITIONS AND METHODS FOR TREATING ALLERGIES AND INFLAMMATORY CONDITIONS” (UNIVERSITY OF PITTSBURGH-OF THE COMMONWEALTH SYSTEM OF …, priority 2021, published 2024).

The test system of one assay is PMCs. Put plainly: β-hexosaminidase release from PMCs. Conditions: incubated with NKA or activated with IgE and antigen in the presence of NKA. The format is cell-based, murine. On the procedure: Mast cells (5×10^5-1×10^6) were loaded with IgE ([…]) for a minimum of 3 h in Tyrode's Buffer. Neurokinin A ([…]) was added with DNP-HSA (Sigma, as indicated or 100 ng/mL) for 40 min at 37 C. Cells and supernatants were collected, cell pellets were lysed in Tyrode's Buffer by freeze-thawing then incubated with p-nitrophenyl N-acetyl j-D-glucosaminide (EMB Millipore, 5 mM) dissolved in citrate buffer (0.04 M, pH 4.5) for 90 minutes. The enzymatic reaction was stopped with glycine (0.4 M, pH 10.7). Absorbance at 450 nm was read. The average percentage of b-hexosaminidase release from triplicate values was calculated as (ODsup/ODsup+ODlysate)×100(%).

Another assay deals with calpain. Kind of assay: Calpain activity in cell-free supernatants of activated PMCs. Type of assay: cell-based, murine. Conditions: IgE+Ag with or without NKA for 60 min. Here is the method:
Calpain activity was detected from cell-free supernatants using the Calpain-Glo Protease Assay (Promega). Supernatants were incubated with substrate for 10 min prior to luminescent detection. In some experiments, glyburide or vehicle (0.1% DMSO) were added to cells 10 min prior to Ag. ELISA kits from eBioscience (IL-13), BioLegend, (TNF and IL-10) or RayBiotech (NKA) and used in accord with the manufacturer's recommendations.

The subject of another assay is IL10-eGFP^+ MCs. Kind of assay: IL-10-GFP expression in skin mast cells of VERT-X reporter mice. Type of assay: in vivo, mouse. The conditions noted are these: with and without PCA induction. Here is the method: C6(Cg)-IL10^tm1.1.Karp/J (VERT-X) mice (Jackson Laboratories) were bred at the University of Pittsburgh. On d0, mice were treated with vehicle on one ear and IgE on the contralateral ear. On day 1, mice were treated with either NKA ([…]) on both ears or vehicle on both ears. Three hours later, PCA was induced. On day 2, mice were euthanized. Excised Ear tissue was digested in IMDM media (Life Technologies) containing collagenase D (Sigma, 1.0 mg/mL) and DNAase (Roche, 1.0 mg/mL) at 37 C for 45 minutes. Single cell homogenates were blocked with FcBlock and stained. In some experiments, avidin AlexaFluro488 was injected intradermally to label cutaneous mast cells were labelled in vivo. Mice were euthanized 7 days after injection.
In other methods, mast cells differentiated for 5-7 weeks (BMMCs) or 3-4 weeks (PMCs) were collected, blocked with FcBlock and stained with anti-FceRI PE (clone MAR-1, Biolegend), anti-CD117 eFluor 450 clone 2B8, ThermoFisher) and anti-NK2R Alexa Fluor 647 or rabbit IgG Alexa Fluor 647 isotype control (Cell Signaling Technology). […]

The test system of a further assay is ABCA1. Put plainly: Surface ABCA1 expression on activated BMMCs (flow cytometry). The conditions noted are these: 30 minutes after IgE-initiated activation; NKA 1000 nM. Type of assay: cell-based, murine. Here is the method:
MCs were collected and washed with PBS containing 0.5% BSA and 0.1% sodium azide. Non-specific binding was inhibited using FcBlock (PBS with 2.0% goat serum and 0.25 mg/mL anti-CD16/32 (clone 2.4G2, BD Biosciences). Surface staining was done with anti-CD117 eFluor450 (clone 2B8, ThermoFisher), anti-FcεRI FITC (clone MAR-1, ThermoFisher) and anti-ABCA1 Alexa Fluor 647 (clone 5A1-1422, BioRad). Cells were washed with Wash Buffer (PBS with 0.5% BSA and 0.1% sodium azide). To detect differences in granulated proteins at the cell surface, IgE-loaded MCs were activated with DNP-HSA with or without NKA in Tyrode's Buffer for 30 min, washed with Wash Buffer then stained with Avidin Alexa Fluor488 (Invitrogen, Av488, 0.8 μg/5×10^5 cells) and anti-LAMP-1 PE (clone eBio 1D48, ThermoFisher). Data were acquired on either a LSRII or a Fortessa (BD BioSciences). Analysis was performed with FlowJo v10.4 (BD Biosciences).
For orientation: Flow cytometry measures light scatter and fluorescence of single cells or particles in a stream.

In the next assay the test system is STAT5. Kind of assay: STAT5 phosphorylation (flow cytometry) and nuclear localization (ImageStream) in BMMCs. Type of assay: cell-based, murine. On the procedure:
To detect phospho-Stat5Tyr694, MCs were loaded with IgE in serum and cytokine-free RPMI. Neurokinin A (1.0 μM) or vehicle control and DNP-HSA (100 ng/mL) were added simultaneously. At the indicated time, cells were fixed with 2.0% paraformaldehyde for 10 minutes then permeabilized with 90% methanol overnight at −20° C. Cells were stained with monoclonal anti-phospho-Stat5 Tyr694 Alexa Fluor 647 (clone C71E5, Cell Signaling Technology) for 60 minutes at room temperature. Nuclear co-localization was evaluated using ImageStream (Amnis). Activated BMMCs were fixed with 2.0% paraformaldehyde, permeabilized with Permeabilization Wash Buffer containing 3% FBS and 0.1% Triton X-100. and stained with anti-STAT5B Alexa Fluor 488 (clone EPR16671, Abcam) and DAPI. Data were analyzed using the Co-localization Wizard in IDEAS (v6.2). Co-localization for single cells expressing STAT5B and DAPI was quantified as Similarity Score, a log-transformed Pearson's correlation coefficient for the pixel intensity of corresponding images.

Assay [1] has as its system passive cutaneous anaphylaxis (PCA). Kind of assay: Passive cutaneous anaphylaxis (PCA) in mice. The conditions noted are these: glyburide 2.5 mg/kg i.p. 3 h prior to PCA induction. The format is in vivo, mouse.

In the case of Neurokinin A [NKA], the β-hexosaminidase release result in the assay with PMCs was “no difference”. Further, in the assay with calpain, the “calpain activity in supernatants” value is “significantly diminished”. Moreover, the “increase in percentage of IL10-eGFP^+ MCs” value with IL10-eGFP^+ MCs is “two-fold”. The “ABCA1 detected on the cell surface” value in the assay with ABCA1 is listed as “reduced the level of ABCA1”. In addition, the “nuclear translocation of STAT5B (imaging flow cytometry)” value in the assay on STAT5 (30 and 60 minutes following IgE crosslinking) is “significantly reduced”. Further, the “pTyr695-STAT5 detected by flow cytometry” value in the assay on STAT5 (15 minutes after crosslinking IgE with Ag, NKA 1.0 μM) is listed as “reduced”.

For the molecule `COc1ccc(Cl)cc1C(=O)NCCc1ccc(S(=O)(=O)NC(=O)NC2CCCCC2)cc1` [glyburide, reference compound], the “ear thickness at 2 h” value in assay [1] is “significantly reduced”. For the same molecule, in assay [1] (24 hours), the “levels of IL-13 in the skin” value was “diminished” and the “levels of TNF in the skin” value was “diminished”.
